For assay [1], the system named is C/EBPε expression in HL60. The experiment in a line: Western blot of C/EBPε expression in HL60 cells. The note with it: ATRA 1 uM. In kind it is cell-based, human. The procedure: FIG. 6. Retinoic acid induces changes in the association of CaMKIIγ with the C/EBPε promoter RARE. […] (B) The human C/EBPε 5′ region indicating the location of the ChIP PCR primers. (C) ChIP assays. HL60 cell chromatin from cells treated with ATRA (1 uM) for the indicated time was immunoprecipitated with the indicated antibodies, the DNA isolated and subjected to PCR utilizing the indicated C/EBPε promoter primer pairs.
Protein extracts, Western blotting and co-immunoprecipitations. Westerns and co-immunoprecipitations were performed as previously detailed (Si, J., and Collins, S. J., Blood 100:4401-4409 (2002)).
On the technique in general: A western blot detects proteins with antibodies after separation by electrophoresis.

Another assay concerns K562 cells. The assay can be described thus: Western blots of signal transduction pathways in K562 cells. In kind it is cell-based, human. The following applies: K562 cultured in KN93. The procedure:
FIG. 12. CaMKII regulates multiple signal transduction pathways in myeloid cells. (A,B) Lysates from K562 cells cultured for the indicated time in KN93 were subjected to Western blots. (C) The K562 cells transduced as described in Materials and Methods with either (i) the doxycycline (DOX) inducible expression vector/transactivator harboring the full length, Lys^43 mutated, kinase dead CaMKIIγ (kdCaMKIIγ (Tet-on)) or (ii) the CaMKII shRNA generating plasmids, were cultured in liquid suspension in the presence or absence of DOX as indicated, and cell counts obtained after 48 hours. (D) Lysates from K562 cells transduced with the indicated vectors were subjected to Western blots utilizing the indicated antibodies. For lanes 2 and 4 doxycycline (DOX) treatment was for two days.
Antibodies and Western blots. Protein extracts, immunoprecipitations and Western blots were performed as previously detailed (Si J, Collins S J. IL-3-induced enhancement of retinoic acid receptor activity is mediated through Stat5, which physically associates with retinoic acid receptors in an IL-3-dependent manner. Blood 100: 4401-9 (2002)). Antibodies against CaMKI, CaMKIIγ, CaMKIV, c-myc, Stat3, Stat5, calmodulin, as well as the phosphospecific CaMKII (T286, 287) and phosphospecific CaMKI (T177) antibodies were from Santa Cruz Biotechnology. Antibodies against phospho-Stat1 (Ser727), phospho-Stat3 (Ser727 and Tyr 705), phospho-Stat5 (Tyr 694), phospho-p44/42 MAP kinase (Thr202/Tyr 204), p44/42 MAP kinase, phospho-p38 MAP kinase (Thr 180/Tyr 182), phospho-GSK3β (Ser9) were from Cell Signaling Technology. Antibodies against Stat1, GSK3β, β-catenin, PP2Ac, and cyclin D1 were from BD Biosciences.

As to `CC1=C(/C=C/C(C)=C/C=C/C(C)=C/C(=O)O)C(C)(C)CCC1` [ATRA, All-trans retinoic acid], the C/EBPε expression entry in assay [1] was “enhanced”.
With `COc1ccc(S(=O)(=O)N(CCO)c2ccccc2CN(C)C/C=C/c2ccc(Cl)cc2)cc1` [KN-93], in the assay with K562 cells, the “GSK3β Ser9 phosphorylation” value was “marked reduction”; the “activation (phosphorylation) of p38” value is given as “decrease”; the “activation (phosphorylation) of pMAPK p44/42” value is listed as “decrease”; the “activation (phosphorylation) of pStat3 (Y705, S727)” value is “decrease”. Besides, in the assay on K562 cells, the “activation (phosphorylation) of pStat5 (Y694)” value was “decrease”, the c-myc protein level entry is “reduction”, the “cyclin D1 protein level” value was “reduction” and the “expression of β-catenin” value was “marked reduction”. For the same compound, the “total levels of these phosphorylated proteins” value in the assay with K562 cells is reported as “not accompanied by any change”.

(Values after patent US20080255244A1, “CaM Kinase II Inhibitor Improves Retinoic Acid Therapy and Inhibits the Proliferation of Myeloid Leukemia Cells” (Fred Hutchinson Cancer Research Center, priority 2007, published 2008).)
